Here are results for six compounds from patent publication US5418160A, “Cloned cell line expressing rat β3A adrenergic receptor” (The United States as represented by the Secretary of the …, priority 1991, dated 1995).

In one assay the test system is brown adipocytes. Particulars: Arch et al., read-out: EC50 for increases in lipolysis; cited from earlier work.
The next assay addresses β1 -adrenergic receptors. The note with it: read-out: KD for [125I]-ICYP binding to β1-adrenergic receptors; cited from earlier work.
For the next assay, the target named is β2 -adrenergic receptors. The note with it: read-out: KD for [125I]-ICYP binding to β2-adrenergic receptors; cited from earlier work.
The target of the next assay is β3 -adrenergic receptor. The note with it: read-out: KD reported for [125I]-ICYP binding to the β3-adrenergic receptor; Emorine et al.; cited from earlier work.
For assay [1], the target named is T1, fat cell β receptor (β3A -adrenergic receptor) (Rattus norvegicus, UniProt P26255).
T1 construct: expressed in transfected cells
T1 sequence (P26255 whole entry): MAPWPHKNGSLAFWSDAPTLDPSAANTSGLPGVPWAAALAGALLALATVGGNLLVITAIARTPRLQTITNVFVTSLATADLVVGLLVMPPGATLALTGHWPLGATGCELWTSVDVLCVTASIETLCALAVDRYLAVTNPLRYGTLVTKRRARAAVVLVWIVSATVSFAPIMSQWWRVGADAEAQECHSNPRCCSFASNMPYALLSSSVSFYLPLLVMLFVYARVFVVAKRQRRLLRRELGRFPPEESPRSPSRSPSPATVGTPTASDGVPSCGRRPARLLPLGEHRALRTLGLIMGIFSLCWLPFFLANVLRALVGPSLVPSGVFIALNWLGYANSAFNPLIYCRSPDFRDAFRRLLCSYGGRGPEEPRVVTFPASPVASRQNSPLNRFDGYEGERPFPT
Kind of assay: Inhibition of BRL 37344-induced cAMP accumulation in transfected CHO cells. Type of assay: cell-based. The note with it: read-out: inhibition of BRL 37344-induced cAMP accumulation. The source says:
Using a protocol for cotransfection of CHO cells (a 1.5 kb fragment was excised from pBluescript using Saci (present in the multiple cloning site of the vector) and BamHI and inserted into the Sac/BamH/sites of PSVL (Pharmacie). CHO-K1 cells were cotransfected with pSVL and pMSVneo (neomycin resistance plasmid) F. Z. Chung, C. D. Wang, P. C. Potter, J. C. Venter and C. M. Fraser, J. Biol. Chem. 263, 4052 (1988) using the CaPO4 precipitation technique. Stable transfectants were obtained by growth of the cells in culture medium containing Geneticin (500 μg/ml); colonies derived from single cells were isolated and expanded.
In general terms: Changes in cAMP serve as a functional read-out for many G protein-coupled receptors.

Molecules are shown by their SMILES. Where two headings read alike, the source gives them in different places.

As a reminder, the EC50 is the midpoint of the concentration-response curve. Regarding `CC(Cc1ccc(OCC(=O)O)cc1)NCC(O)c1cccc(Cl)c1` (centres unmarked) [BRL 37344], the EC50 in the assay on brown adipocytes was 1.7 nM. Usually Kd stands for the equilibrium constant for the complex coming apart. For the compound `CC(C)(C)NCC(O)COc1cccc2[nH]c(C#N)c([125I])c12` (centres unmarked) [[^125 1]-ICYP, [^125 1]-iodocyanopindolol], the dissociation constant (Kd) on β1 -adrenergic receptors is 0.011 nM; on β2 -adrenergic receptors, 0.03 nM; on β3 -adrenergic receptor, 0.5 nM.

Usually inhibition stands for the share of the control response that was lost under treatment. On to `C=CCc1ccccc1OCC(O)CNC(C)C` (centres unmarked) [alprenolol], for which the inhibition at 100 µM in assay [1] (antagonist at 10^-4 M, transfected CHO cells) was 52%. As to `CC(C)NCC(O)COc1ccc(CC(N)=O)cc1` (centres unmarked) [atenolol], the inhibition at 100 µM in assay [1] (CHO) was determined as 30%.

On to `CC(C)NCC(O)c1ccc(O)c(O)c1` (centres unmarked) [isoproterenol], for which the EC50 in the assay with brown adipocytes was 8 nM.

For the compound `COCCc1ccc(OCC(O)CNC(C)C)cc1` (centres unmarked) [metoprolol], the inhibition at 100 µM in assay [1] (CHO) was 70%.
